Reference: ChEMBL document CHEMBL3885881, “DrugMatrix”

Organism: Rattus norvegicus
Assay: DrugMatrix - Regimen: Daily Repeat
Type: toxicity, organism-based, Sprague-Dawley
Parameters: regimen Daily Repeat, gender Male, age 6-8 weeks
Settings: in vivo, po, route oral GAVAGE, vehicle 100 % WATER; for ABSOLUTE BASOPHIL / ABSOLUTE EOSINOPHIL / ABSOLUTE LYMPHOCYTE / ABSOLUTE MONOCYTE / ABSOLUTE SEGMENTED NEUTROPHIL / BASOPHIL / EOSINOPHIL / ERYTHROCYTE COUNT / HEMATOCRIT / HEMOGLOBIN / LEUKOCYTE COUNT / LYMPHOCYTE / MEAN CORPUSCULAR HEMOGLOBIN / MEAN CORPUSCULAR HEMOGLOBIN CONCENTRATION / MEAN CORPUSCULAR VOLUME / MONOCYTE / NEUTROPHIL / NUCLEATED RED BLOOD CELLS / PLATELET COUNT: tissue Blood; for ALANINE AMINOTRANSFERASE / ALBUMIN / ALKALINE PHOSPHATASE / ASPARTATE AMINOTRANSFERASE / BLOOD UREA NITROGEN / CARBON DIOXIDE / CHLORIDE / CHOLESTEROL / CREATINE PHOSPHOKINASE / CREATININE / GLUCOSE / LACTATE DEHYDROGENASE / LIPASE / PHOSPHORUS / POTASSIUM / SODIUM / TOTAL BILIRUBIN / TOTAL PROTEIN / URIC ACID: tissue Plasma
[1] = 100 mg/kg, 72 h, dose level Low, time 3 day
[2] = 100 mg/kg, 120 h, dose level Low, time 5 day
[3] = 2000 mg/kg, 72 h, dose level High, time 3 day
[4] = 2000 mg/kg, 120 h, dose level High, time 5 day

Structure (SMILES): O=C1O[C@H]([C@@H](O)CO)C(O)=C1O [ASCORBIC ACID]
- ABSOLUTE BASOPHIL [1]: 0 CELLS/uL
- ABSOLUTE EOSINOPHIL [1]: 27 CELLS/uL
- ABSOLUTE LYMPHOCYTE [1]: 7261.67 CELLS/uL
- ABSOLUTE MONOCYTE [1]: 27 CELLS/uL
- ABSOLUTE SEGMENTED NEUTROPHIL [1]: 717.67 CELLS/uL
- BASOPHIL [1]: 0%
- EOSINOPHIL [1]: 0.33%
- ERYTHROCYTE COUNT [1]: 4.91 x10E6/uL
- HEMATOCRIT [1]: 32.13%
- HEMOGLOBIN [1]: 13.13 G/DL
- LEUKOCYTE COUNT [1]: 8.03 x10E3/uL
- LYMPHOCYTE [1]: 89%
- MEAN CORPUSCULAR HEMOGLOBIN [1]: 26.8 pg
- MEAN CORPUSCULAR HEMOGLOBIN CONCENTRATION [1]: 40.87 G/DL
- MEAN CORPUSCULAR VOLUME [1]: 65.43 fL
- MONOCYTE [1]: 0.33%
- NEUTROPHIL [1]: 10.33%
- NUCLEATED RED BLOOD CELLS [1]: 0.33 /100WBC
- PLATELET COUNT [1]: 954.33 x10E3/uL
- ALANINE AMINOTRANSFERASE [1]: 50 u/L
- ALBUMIN [1]: 4.53 G/DL
- ALKALINE PHOSPHATASE [1]: 454.67 u/L
- ASPARTATE AMINOTRANSFERASE [1]: 87 u/L
- BLOOD UREA NITROGEN [1]: 15 mg/dL
- CARBON DIOXIDE [1]: 32.33 mmol/L
- CHLORIDE [1]: 101 MEQ/L
- CHOLESTEROL [1]: 78.33 mg/dL
- CREATINE PHOSPHOKINASE [1]: 273 u/L
- CREATININE [1]: 0.25 mg/dL
- GLUCOSE [1]: 121.33 mg/dL
- LACTATE DEHYDROGENASE [1]: 148.67 u/L
- LIPASE [1]: 9.67 u/L
- PHOSPHORUS [1]: 12.13 mg/dL
- POTASSIUM [1]: 7.25 MEQ/L
- SODIUM [1]: 146.63 MEQ/L
- TOTAL BILIRUBIN [1]: 0.23 mg/dL
- TOTAL PROTEIN [1]: 6.33 G/DL
- URIC ACID [1]: 1.07 mg/dL
- ABSOLUTE BASOPHIL [2]: 0 CELLS/uL
- ABSOLUTE EOSINOPHIL [2]: 0 CELLS/uL
- ABSOLUTE LYMPHOCYTE [2]: 12684.67 CELLS/uL
- ABSOLUTE MONOCYTE [2]: 119.33 CELLS/uL
- ABSOLUTE SEGMENTED NEUTROPHIL [2]: 1596 CELLS/uL
- BASOPHIL [2]: 0%
- EOSINOPHIL [2]: 0%
- ERYTHROCYTE COUNT [2]: 5.44 x10E6/uL
- HEMATOCRIT [2]: 34.63%
- HEMOGLOBIN [2]: 13.63 G/DL
- LEUKOCYTE COUNT [2]: 14.4 x10E3/uL
- LYMPHOCYTE [2]: 88.33%
- MEAN CORPUSCULAR HEMOGLOBIN [2]: 25.07 pg
- MEAN CORPUSCULAR HEMOGLOBIN CONCENTRATION [2]: 39.4 G/DL
- MEAN CORPUSCULAR VOLUME [2]: 63.67 fL
- MONOCYTE [2]: 1%
- NEUTROPHIL [2]: 10.67%
- NUCLEATED RED BLOOD CELLS [2]: 0 /100WBC
- PLATELET COUNT [2]: 1152.33 x10E3/uL
- ALANINE AMINOTRANSFERASE [2]: 51.67 u/L
- ALBUMIN [2]: 4.3 G/DL
- ALKALINE PHOSPHATASE [2]: 417 u/L
- ASPARTATE AMINOTRANSFERASE [2]: 79 u/L
- BLOOD UREA NITROGEN [2]: 17 mg/dL
- CARBON DIOXIDE [2]: 33.33 mmol/L
- CHLORIDE [2]: 103 MEQ/L
- CHOLESTEROL [2]: 73 mg/dL
- CREATINE PHOSPHOKINASE [2]: 142.33 u/L
- CREATININE [2]: 0.2 mg/dL
- GLUCOSE [2]: 152.67 mg/dL
- LACTATE DEHYDROGENASE [2]: 82.33 u/L
- LIPASE [2]: 8.33 u/L
- PHOSPHORUS [2]: 12.97 mg/dL
- POTASSIUM [2]: 6.73 MEQ/L
- SODIUM [2]: 148.3 MEQ/L
- TOTAL BILIRUBIN [2]: 0.2 mg/dL
- TOTAL PROTEIN [2]: 6.23 G/DL
- URIC ACID [2]: 1.53 mg/dL
- ABSOLUTE BASOPHIL [3]: 0 CELLS/uL
- ABSOLUTE EOSINOPHIL [3]: 0 CELLS/uL
- ABSOLUTE LYMPHOCYTE [3]: 11911.67 CELLS/uL
- ABSOLUTE MONOCYTE [3]: 70.67 CELLS/uL
- ABSOLUTE SEGMENTED NEUTROPHIL [3]: 1384.33 CELLS/uL
- BASOPHIL [3]: 0%
- EOSINOPHIL [3]: 0%
- ERYTHROCYTE COUNT [3]: 5.18 x10E6/uL
- HEMATOCRIT [3]: 32.77%
- HEMOGLOBIN [3]: 13.1 G/DL
- LEUKOCYTE COUNT [3]: 13.37 x10E3/uL
- LYMPHOCYTE [3]: 89.33%
- MEAN CORPUSCULAR HEMOGLOBIN [3]: 25.27 pg
- MEAN CORPUSCULAR HEMOGLOBIN CONCENTRATION [3]: 39.97 G/DL
- MEAN CORPUSCULAR VOLUME [3]: 63.27 fL
- MONOCYTE [3]: 0.67%
- NEUTROPHIL [3]: 10%
- NUCLEATED RED BLOOD CELLS [3]: 0 /100WBC
- PLATELET COUNT [3]: 1123.33 x10E3/uL
- ALANINE AMINOTRANSFERASE [3]: 37.67 u/L
- ALBUMIN [3]: 4.03 G/DL
- ALKALINE PHOSPHATASE [3]: 334 u/L
- ASPARTATE AMINOTRANSFERASE [3]: 76.33 u/L
- BLOOD UREA NITROGEN [3]: 15.33 mg/dL
- CARBON DIOXIDE [3]: 32.33 mmol/L
- CHLORIDE [3]: 101.67 MEQ/L
- CHOLESTEROL [3]: 63.67 mg/dL
- CREATINE PHOSPHOKINASE [3]: 214.33 u/L
- CREATININE [3]: 0.17 mg/dL
- GLUCOSE [3]: 146.33 mg/dL
- LACTATE DEHYDROGENASE [3]: 137.67 u/L
- LIPASE [3]: 9 u/L
- PHOSPHORUS [3]: 11.5 mg/dL
- POTASSIUM [3]: 6.65 MEQ/L
- SODIUM [3]: 144.3 MEQ/L
- TOTAL BILIRUBIN [3]: 0.2 mg/dL
- TOTAL PROTEIN [3]: 5.63 G/DL
- URIC ACID [3]: 1.4 mg/dL
- ABSOLUTE BASOPHIL [4]: 0 CELLS/uL
- ABSOLUTE EOSINOPHIL [4]: 0 CELLS/uL
- ABSOLUTE LYMPHOCYTE [4]: 16297.33 CELLS/uL
- ABSOLUTE MONOCYTE [4]: 372.33 CELLS/uL
- ABSOLUTE SEGMENTED NEUTROPHIL [4]: 863.67 CELLS/uL
- BASOPHIL [4]: 0%
- EOSINOPHIL [4]: 0%
- ERYTHROCYTE COUNT [4]: 5.49 x10E6/uL
- HEMATOCRIT [4]: 35.9%
- HEMOGLOBIN [4]: 14.2 G/DL
- LEUKOCYTE COUNT [4]: 17.53 x10E3/uL
- LYMPHOCYTE [4]: 93.33%
- MEAN CORPUSCULAR HEMOGLOBIN [4]: 25.9 pg
- MEAN CORPUSCULAR HEMOGLOBIN CONCENTRATION [4]: 39.53 G/DL
- MEAN CORPUSCULAR VOLUME [4]: 65.47 fL
- MONOCYTE [4]: 2%
- NEUTROPHIL [4]: 4.67%
- NUCLEATED RED BLOOD CELLS [4]: 0.33 /100WBC
- PLATELET COUNT [4]: 1195.67 x10E3/uL
- ALANINE AMINOTRANSFERASE [4]: 48 u/L
- ALBUMIN [4]: 4.23 G/DL
- ALKALINE PHOSPHATASE [4]: 355.33 u/L
- ASPARTATE AMINOTRANSFERASE [4]: 75.33 u/L
- BLOOD UREA NITROGEN [4]: 14.67 mg/dL
- CARBON DIOXIDE [4]: 33.67 mmol/L
- CHLORIDE [4]: 99.67 MEQ/L
- CHOLESTEROL [4]: 70.67 mg/dL
- CREATINE PHOSPHOKINASE [4]: 260 u/L
- CREATININE [4]: 0.26 mg/dL
- GLUCOSE [4]: 135.67 mg/dL
- LACTATE DEHYDROGENASE [4]: 215 u/L
- LIPASE [4]: 10.67 u/L
- PHOSPHORUS [4]: 11.83 mg/dL
- POTASSIUM [4]: 6.61 MEQ/L
- SODIUM [4]: 144.07 MEQ/L
- TOTAL BILIRUBIN [4]: 0.27 mg/dL
- TOTAL PROTEIN [4]: 6.03 G/DL
- URIC ACID [4]: 1.37 mg/dL
